Assay results from patent publication US7855211B2, “Protein kinase inhibitors” (Eli Lilly and Company, priority 2008, dated 2010).

Assays:
[1] = target: T1, CDK4 (Homo sapiens, UniProt P11802); test: CDK4 Inhibition Assay; type: biochemical; conditions: CDK4 kinase, 33P-ATP, CTRF substrate
T1 construct: purchased Proqinase 0142-0373-1
Procedure: All ligands, radiolabels, solvents, and reagents employed in the following assays are readily available from commercial sources, or can be readily synthesized by one skilled in the art.
10 μL of test compound in 20% DMSO, 20 μL of adenosine 5′-triphosphate (ATP) and C-Terminal Retinoblastoma Fragment (CTRF) (Upstate cat # 12-439) solution, and 10 μL of enzyme solution are mixed in a 96 well plate. The ATP and CRTF solution is prepared from a mixture of 40 μM ATP, 0.16 μCi [^33P] ATP and 1 μM CTRF diluted in kinase buffer of 68 mM 4-(2-hydroxyethyl)-1-piperazineethanesulfonic acid (HEPES) pH 7.4, 6.72 mM MgCl2, 6.72 mM dithiothreitol (DTT), and 0.013% TRITON™ X-100. The enzyme solution is prepared from 8 ng CDK4 enzyme (Proqinase cat # 0142-0373-1) diluted in the kinase buffer described above. Test compounds are serially diluted 1:3 in 20% DMSO to create a 10 point curve at a starting concentration of 20 μM. 20% DMSO buffer alone without added test compound is employed as a control, 500 mM ethylene diamine tetraacetic acid (EDTA) is used to determine the level of background ^33P in the absence of enzyme activity. Reagents are mixed and incubated for 90 min at 20° C. […] The wells are washed four times with 0.5% H3PO4 and the radioactivity incorporated is determined with a microplate scintillation counter (Microbeta Trilux, Wallac). […]

[2] = target: Pim-1 (Homo sapiens, UniProt P11309); test: Assay for Inhibition of PIM1 Kinase; type: biochemical
Procedure: Pim-1 (human, 0.46 nM final concentration) is incubated with 8 mM MOPS pH 7.0, 0.2 mM EDTA, 100 μM of an appropriate substrate peptide (see Pim-1 kinase inhibition assay protocol as described in Chen, L. S. et al. (2009) Blood, DOI: 10.1182/blood-2009-03-212852), 10 mM MgAcetate and [γ-^33P-ATP] (specific activity approx. 500 cpm/pmol, concentration as required). The reaction is initiated by the addition of the MgATP mix and then incubated for 40 minutes at room temperature. The reaction is stopped by the addition of 3% phosphoric acid solution. 10 μL of the reaction is then spotted onto a P30 filtermat and washed three times for 5 minutes in 75 mM phosphoric acid and once in methanol prior to drying and scintillation counting. For compound inhibition testing, compounds provided as 10 mM stocks in 100% DMSO are diluted 1:10 in 100% DMSO to give a 50× stock of the top concentration of the curve. The 50× stock is then serially diluted 1:3 in 100% DMSO to create a 10 point concentration-response curve and diluted 1:50 (20 μM to 0.001 μM final in 2% final DMSO concentration) in the reaction mixture to determine compound activity. […] The percent inhibition determined from the controls on each plate and ten-point compound concentration data were then fit to a four-parameter logistic equation using ACTIVITYBASE 4.0. […]

[3] = tested on: phosphorylation of Retinoblastoma Protein (pRb); test: Inhibition of Phosphorylation of Retinoblastoma Protein (pRb) in COLO 205 cells; type: cell-based; conditions: Homo sapiens, 24 h exposure, read-out: IC50 (% phosphoRB positive)
Procedure: COLO 205 Cells from the American Type Culture Collection (ATCC) are plated at 2000 cells/well in 96 well […] BIOCOAT™ plates, and are incubated in RPMI 1640 medium (e.g., GIBCO, catalog #52400-025) with 10% Fetal Bovine Serum (FBS e.g. Gibco cat #11000-144) and 1% sodium pyruvate (Gibco catalog #11360-070) in 37° C., 5% CO2 for 24 h. Cells are treated by adding test compound to the medium, dosing at 10 points of 1:3 dilutions across the range of 20 μM to 0.001 μM, and with final DMSO concentration at 0.25%. After 24 h exposure to the compounds, cells are fixed with the PREFER™ fixative [Anatech LTD., Cat # 414] for 30 min at RT, then are permeabilized with 0.1% TRITON® X100 in phosphate buffered saline (PBS) solution for 15 min at RT. […] Fluorescence plates are scanned with ACUMEN EXPLORER™ [Laser-scanning fluorescence microplate cytometer (comprising of 488 nm argon ion laser excitation and multiple photomultiplier tube detection), manufactured by TTP LABTECH LTD] to measure phosphorylation of Rb protein and DNA content. […] Assay outputs are percentage of each identified subpopulations, % phosphoRB positive, % 2 N and % 4 N. The IC50 and EC50 values are determined by curve fitting to a four parameter logistic for each output using ACTIVITY BASE™. […]

[4] = Rat Oral Bioavailability Assay; type: in vivo; conditions: plasma, 1 mg/kg, male Sprague Dawley rats, oral suspension vs intravenous, read-out: Fraction bioavailable relative to the intravenous dose (% F)
Procedure: Male Sprague Dawley rats (body weight range 250-320 g) with indwelling femoral arterial cannulae are obtained from Charles River, Wilmington, Mass. 01887, USA. Test compound is administered intravenously in solution (2 mL/kg) in: 10% N-methyl pyrollidone/18% Captisol® in 22.5 mM phosphate buffer, pH 3. The final drug concentration is 0.25 mg/mL (free base equivalents). Blood samples are obtained using the indwelling cannula over 24 h. The animals are then administered an oral dose of test compound in suspension (5 mL/kg) in 1% w/v hydroxyethylcellulose/0.25% v/v polysorbate 80/0.05% v/v antifoam in purified water. The final drug concentration is 0.2 mg/mL (free base equivalents). […]
An internal standard compound (for normalisation) in acetonitrile/methanol (1:1, v/v) is added to samples of plasma to precipitate protein and the samples are centrifuged prior to analysis. The supernatants are analysed by injection and rapid gradient elution on a Javelin Betasil C18 column (20×2.1 mm cartridge, Mobile phase A: Water/1 M ammonium bicarbonate, 2000:10 v/v, Mobile Phase B: MeOH/1 M ammonium bicarbonate, 2000:10 v/v). The eluted analytes are detected by LC-MS-MS analysis using a Sciex API 4000 triple quadrupole mass spectrometer. Concentrations of compounds in plasma are determined from standards prepared under identical conditions. […]

T1 sequence (P11802 whole entry): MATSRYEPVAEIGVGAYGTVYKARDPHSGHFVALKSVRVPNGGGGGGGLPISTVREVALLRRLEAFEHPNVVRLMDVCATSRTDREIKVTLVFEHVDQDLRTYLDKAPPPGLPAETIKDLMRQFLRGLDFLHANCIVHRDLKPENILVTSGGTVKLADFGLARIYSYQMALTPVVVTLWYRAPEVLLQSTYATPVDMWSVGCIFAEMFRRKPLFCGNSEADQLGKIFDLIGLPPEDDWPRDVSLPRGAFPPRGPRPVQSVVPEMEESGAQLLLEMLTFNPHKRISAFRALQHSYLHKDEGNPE
T1 sequence (P30281 whole entry partner): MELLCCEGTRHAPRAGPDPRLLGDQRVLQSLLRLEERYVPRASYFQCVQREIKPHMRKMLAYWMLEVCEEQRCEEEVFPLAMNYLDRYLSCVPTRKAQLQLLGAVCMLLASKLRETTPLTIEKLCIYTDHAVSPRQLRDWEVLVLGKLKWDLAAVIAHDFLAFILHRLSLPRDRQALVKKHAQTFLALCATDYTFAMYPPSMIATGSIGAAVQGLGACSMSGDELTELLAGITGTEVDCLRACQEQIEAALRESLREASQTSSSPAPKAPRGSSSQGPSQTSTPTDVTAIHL
Pim-1, sequence (P11309 whole entry): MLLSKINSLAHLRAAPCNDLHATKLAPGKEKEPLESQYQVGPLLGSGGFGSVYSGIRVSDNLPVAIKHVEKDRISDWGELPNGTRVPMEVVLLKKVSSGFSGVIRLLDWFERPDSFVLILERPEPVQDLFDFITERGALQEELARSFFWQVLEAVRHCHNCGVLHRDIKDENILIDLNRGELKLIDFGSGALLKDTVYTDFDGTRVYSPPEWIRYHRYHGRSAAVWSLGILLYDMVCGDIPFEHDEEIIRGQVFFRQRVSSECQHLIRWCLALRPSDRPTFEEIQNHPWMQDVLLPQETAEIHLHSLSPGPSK

| Compound | IC50 [1] | IC50 [2] | IC50 [3] | bioavailability [4] |
| --- | --- | --- | --- | --- |
| CCN1CCC(Cc2ccc(Nc3ncc(F)c(-c4cc(F)c5nc(C)n(C(C)C)c5c4)n3)nc2C)CC1 [Example 25, [5-(1-Ethyl-piperidin-4-ylmethyl)-6-methyl-pyridin-2-yl]-[5-fluoro-4-(7-fluoro-3-isopropyl-2-methyl-3H-benzoimidazol-5-yl)-pyrimidin-2-yl]-amine methanesulfonate] | 3 nM | 3 nM | ~100 nM | – |
| CS(=O)(=O)O.Cc1nc2ccc(-c3nc(Nc4ccc(C5CCN(C(C)C)CC5)cn4)ncc3F)cc2n1C1CCCC1 [Example 22, [4-(3-Cyclopentyl-2-methyl-3H-benzoimidazol-5-yl)-5-fluoro-pyrimidin-2-yl]-(1′-isopropyl-1′,2′,3′,4′,5′,6′-hexahydro-[3,4′]bipyridinyl-6-yl)-amine methanesulfonate] | – | – | – | 48.5% |
